Values quoted from earlier work, collected in patent publication US10112976B2, “Process for the production of D-arginyl-2,6-dimethyl-L-tyrosyl-L-lysyl-L-phenylalaninamide” (Flamma S.P.A., priority 2014, dated 2018).
Non-standard residues stand in square brackets, D forms with d. Residues, ends and D or L forms follow the SMILES beside them. Dmt = Cc1cc(O)cc(C)c1C[C@H](N)C(=O)O

What was measured:
[1] = test system: N2A neuronal cell line; settings: <1 nM; N2A cells
[2] = test system: SH—SY5Y neuronal cell line; settings: <1 nM; SH—SY5Y cells
[3] = test system: rats with unilateral ureteral obstruction; settings: intraperitoneal 1 and 3 mg/kg, 1 day prior to obstruction and every day for 14 days
[4] = test system: mouse pancreatic islets; settings: 3 mg/kg i.p. qd for 2 weeks
[5] = test system: G93A mouse model of amyotrophic lateral sclerosis; settings: 5 mg/kg/day i.p. starting at 30 days of age
[6] = test system: inner mitochondrial membrane
[7] = target: mu-opioid receptor (Homo sapiens, UniProt P35372); settings: as stated for WO 2013/086020, WO 2004/070054, WO 2005/072295
Sequence of mu-opioid receptor (P35372 whole entry): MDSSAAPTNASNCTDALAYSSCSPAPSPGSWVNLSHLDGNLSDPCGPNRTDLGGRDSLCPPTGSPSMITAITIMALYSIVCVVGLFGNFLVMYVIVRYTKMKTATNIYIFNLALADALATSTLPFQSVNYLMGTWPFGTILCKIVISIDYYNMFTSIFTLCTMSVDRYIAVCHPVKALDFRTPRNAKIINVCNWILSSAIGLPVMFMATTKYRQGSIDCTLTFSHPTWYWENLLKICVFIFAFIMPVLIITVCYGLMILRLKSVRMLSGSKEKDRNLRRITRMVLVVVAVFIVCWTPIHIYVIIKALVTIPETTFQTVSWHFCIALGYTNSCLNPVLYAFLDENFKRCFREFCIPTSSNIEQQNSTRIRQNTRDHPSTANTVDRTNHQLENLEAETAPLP

Q: For `Cc1cc(O)cc(C)c1C[C@H](NC(=O)[C@H](N)CCCNC(=N)N)C(=O)N[C@@H](CCCCN)C(=O)N[C@@H](Cc1ccccc1)C(N)=O` [D-Arginyl-2,6-dimethyl-L-tyrosyl-L-lysyl-L-phenylalaninamide] (H-[dR][Dmt]KF-NH2), which “intracellular reactive oxygen species” value [1] is on record?
A: The value was “significantly reduced”.

Q: What about the mitochondrial potential [1] of the same molecule?
A: Its mitochondrial potential is “increased”.

Q: What about the tBHP-induced apoptosis [1] of the same molecule?
A: Its tBHP-induced apoptosis is “prevented”.

Q: What about the “intracellular reactive oxygen species” value [2] of the same molecule?
A: The value was “significantly reduced”.

Q: And the mitochondrial potential [2]?
A: The mitochondrial potential was “increased”.

Q: What about the tBHP-induced apoptosis [2] of the same molecule?
A: The tBHP-induced apoptosis was “prevented”.

Q: What about the interstitial fibrosis [3] of the same molecule?
A: Its interstitial fibrosis is “significantly decreased”.

Q: And the macrophage infiltration [3]?
A: The macrophage infiltration was “significantly decreased”.

Q: And the tubular damage [3]?
A: The tubular damage was “significantly decreased”.

Q: What about the “apoptosis in pancreatic islets caused by streptozotocin” value [4] of the same molecule?
A: The value was “prevented”.

Q: And the “insulin reduction in pancreatic islets caused by streptozotocin” value [4]?
A: Its value is “prevented”.

Q: And the disease onset [5]?
A: The disease onset was “significant delay”.

Q: And the antioxidant activity [6]?
A: Its antioxidant activity is “showed antioxidant activity”.

Q: What about the “mu-opioid receptor agonist activity” value [7] of the same molecule?
A: The value was “does not have mu-opioid receptor agonist activity”.
